Legend:
[1] = tested on: Molt-4 lymphoblastic leukemia cells; test: Cytotoxicity of jasmonate derivatives in Molt-4 cells (Example 1, XTT/MTS assay); assay type: cell-based, Human; settings: for Cytotoxic potency at 0.1 mM, first screening: Molt-4, 0.1 mM; for Cytotoxic potency, second screen: Molt-4, 0.01-0.1 mM, FIG. 2; for Cytotoxic potency compared to methyl jasmonate, first screening: Molt-4, 0.1-1 mM, FIGS. 1A and 1B; for Cytotoxic potency compared to methyl jasmonate, third screen: Molt-4, FIG. 3 and Table 1; for inhibition at 1 µM / inhibition at 10 µM / inhibition at 100 µM: Homo sapiens, MOLT-4, 24 hours, value (±spread), read-out: Cytotoxicity in Molt-4 cells (% of inhibition compared to control); for inhibition at 1 µM: 0.001 mM; for inhibition at 10 µM: 0.01 mM; for inhibition at 100 µM: 0.1 mM
Experimental: (§1) Measurement of reduction in the number of living cells was determined by the CellTiter 96 Aqueous Non-Radioactive Cell Proliferation Assay (XTT Cell Proliferation Kit assay (Biological industries, Beit-Haemek, Israel)). Upon completion of a given experiment, MTS (a tetrazolium compound) at 333 μg/ml+phenazine methosulfate (at 25 μM) was added to each well of the 96-well plate for 1 hour at 37° C. This allowed for development of a color reaction in which dehydrogenases reduce the MTS in metabolically active cells. Soluble MTS formazan product was measured at a wavelength of 490 nm using a CERES 900 HDI ELISA reader (Bio-Tek Instruments, Inc, Highland Park, Vt.).
(§2) Percentage of Optical density is directly proportional to the number of living cells in culture. Cytotoxicity (%) was calculated in the following way: [(OD of control cells —OD of drug-treated cells)/OD of control cells]×100.
The cytotoxicity of jasmonate derivatives A1-A6, B1 and B2 was compared to that of the previously studied jasmonate, methyl jasmonate (MJ). The cytotoxicity of each compound was determined in Molt-4-Human acute lymphoblastic leukemia cell-line.
[…] Each experimental point was performed in triplicates. Untreated cells were used as control. The test compounds were prepared as a stock of 100 mM in DMSO. Dilutions were performed in culture medium and DMSO so that the maximal concentration of DMSO in each well was 0.5%. […] Cytotoxicity and optical density were determined as described above.

Molt-4 (leukemia) cells [2] = test: Cytotoxicity in Molt-4 cells (Example 2, selectivity); assay type: cell-based; settings: Homo sapiens, 24 h; Molt-4, one day incubation
Experimental: as §1, §2
(§3) Molt-4 (leukemia) cells (at 2.5×10^4/ml), and normal peripheral blood lymphocytes (PBL, at 2×10^5/ml) were incubated in 96-well plates for one day in the presence of different concentrations of methyl jasmonate, (MJ—disclosed in U.S. Pat. No. 6,469,061), and compounds A3 and A4 of the present invention at concentrations: of 0.001, 0.01, 0.1 and 0.5 mM. In some experiments, PBL were pre-incubated with 0.8 μg/ml phytohemagglutinin (PHA)+5 ng/ml TPA for […], to induce entrance into the cell cycle. These cells proliferate and therefore are similar in that respect to cancer cells, making the comparison more valid. The optical density that represented viable cells was determined as described above.

[3] = tested on: normal peripheral blood lymphocytes (PBL), +PHA/TPA; test: Cytotoxicity in normal PBL pre-incubated with PHA/TPA (Example 2); assay type: cell-based; settings: Homo sapiens, Lymphocyte, 24 h, one day incubation
Experimental: as §1, §2, §3

[4] = tested on: normal peripheral blood lymphocytes (PBL), -PHA/TPA; test: Cytotoxicity in normal PBL without PHA/TPA (Example 2); assay type: cell-based, Human; settings: for IC20 / IC50: Homo sapiens, Lymphocyte, 24 h, PBL -PHA/TPA, one day incubation; for Selective cytotoxic effect: leukemic cells vs normal lymphocytes: Molt-4 vs PBL, FIGS. 4A and 4B
Experimental: as §1, §2, §3

Molt-4 = test: Cytotoxicity of B3 in Molt-4 (Example 4); assay type: cell-based; settings: Homo sapiens; Molt-4, 24 hours, n=12
Experimental: as §1, §2
(§4) Mononuclear cells were isolated from peripheral blood of healthy donors and treated as described above. The non-adherent PBL were pre-incubated without PHA and TPA. Molt-4 and PBL cells were seeded in 96-well plates as described above.
(§5) Compound B3 was added at concentration ranging from 0.0025-1 mM for 24 hours. The number of repeats for each experiment is indicated by n. Untreated cells were used as control. […] Optical density and percentage of Cytotoxicity were determined as described above.

Fibroblasts = test: Cytotoxicity of B3 in fibroblasts (Example 4); assay type: cell-based; settings: Homo sapiens, Fibroblast, 24 hours, n=2
Experimental: as §1, §2
(§6) Compound B3 was added at concentration ranging from 0.0025-1 mM for 24 hours. The number of repeats for each experiment is indicated by n. Untreated cells were used as control. Compound B3 was prepared as a stock of 100 mM in 100% DMSO and dilutions in medium were prepared as described above. Optical density and percentage of Cytotoxicity were determined as described above.

[5] = tested on: CLL (PBL, chronic lymphocytic leukemia); test: Cytotoxicity of B3 in CLL cells (Example 4); assay type: cell-based; settings: Homo sapiens, CLL cell, 24 hours, n=14
Experimental: as §1, §2
Cytotoxicity of compound B3 was evaluated in 1) Molt 4 cells (an in-vitro model for transformed cells); 2) PBL (an ex vivo model for normal cells); and 3) PBL CLL—Peripheral blood lymphocytes collected from chronic lymphocytic leukemia patients (an ex vivo model for ex vivo transformed cells). […]
Compound B3 was added at concentration ranging from 0.0025-1 mM for 24 hours. […] Optical density and percentage of Cytotoxicity were determined as described above.

Molt 4 cell line = test: ATP depletion in Molt-4 (CellTiter-Glo luminescent assay, Example 7); assay type: cell-based; settings: Homo sapiens; Molt-4, 1 hr exposure
Experimental: The effect of methyl jasmonate and compound B3 on ATP level depletion is studied in the Molt 4 cell line using ATP kit and luminometer (Cell titer—Glo Luminescent, cell viability assay, Promega, code G7571, Ref.)
Cell preparation: Cells (Molt 4) were seeded in 96-well opaque-walled plates. The number of cells (in a volume of 100 μL/well) was: 5×10^4 cells/well. Control wells contained 100 μL medium without cells (background luminescence) Incubations were performed at 37° C., 6% CO2, using the following culture medium: RPMI 1640, 10% FCS, 2 mM L-Glutamine and penicillin 200 U/ml+200 μg/ml streptomycin or equivalent. For the cell viability assay, cells were incubated for 12 min-24 hr. in the absence or presence of methyl jasmonate or several jasmonate derivatives of the present invention at 0.05-4 mM. Reagent Preparation The CellTiter-Glo® buffer and the lyophilized substrate were thawed and equilibrated to room temperature. The buffer was mixed with the substrate by vortexing for 1 minute. […]
The plates were equilibrated to room temperature [25° C.] for 30 min. […] The plates were allowed to incubate at 25° C. for 10 min in the Luminoskan to stabilize luminescence signal. Results were read through Record luminescence [Thermo-Luminoskan Ascent] or equivalent, with integration time of 2000 m. seconds per well and blanking time 5%. […] Percent of cytotoxicity was determined described above.

Molt-4 cell line = test: Cytotoxicity of different batches of B3 towards Molt-4 (Example 5); assay type: cell-based, Human
Experimental: as §1, §2
The IC50 values in Molt-4 cells for B3 were 0.06 mM in average. For cytotoxicity evaluation in different cell lines B3-IV was used.

NCI H460 = test: Cytotoxicity of B3 in NCI H460 (Example 4); assay type: cell-based; settings: Homo sapiens; NCI H460, 24 hours, n=3
Experimental: as §1, §2, §6

PBL, healthy donors = test: Cytotoxicity of B3 in PBL of healthy donors (Example 4); assay type: cell-based, Human
Experimental: as §1, §2, §4, §5

B16 = test: Cytotoxicity of B3 in B16 (Example 4); assay type: cell-based; settings: Mus musculus; B16, 24 hours, n=6
Experimental: as §1, §2, §6

HTB38 = test: Cytotoxicity of B3 in HTB38 (Example 4); assay type: cell-based; settings: Homo sapiens, HTB-38; HTB38, 24 hours, n=3
Experimental: as §1, §2, §6

LNCaP = test: Cytotoxicity of B3 in LNCaP (Example 4); assay type: cell-based; settings: Homo sapiens, 24 hours, n=4
Experimental: as §1, §2, §6

Molt-4 (leukemia) cells [6] = settings: cited from earlier work
[7] = tested on: normal peripheral blood lymphocytes (PBL), -PHA/TPA; settings: cited from earlier work
lymphomas = settings: mice; cited from earlier work

CCCCCC1c2nc(NC(=O)c3cnccn3)sc2CC1CC(=O)NC1CC1 (centres unmarked) [Compound A1]
Cytotoxic potency at 0.1 mM, first screening [1]: very potent
Cytotoxic potency, second screen [1]: most potent
Cytotoxic potency compared to methyl jasmonate, first screening [1]: more potent than methyl jasmonate

CCCCCC1c2nc(N)sc2CC1CC(=O)N1CCN(C)CC1 (centres unmarked) [Compound A2]
Cytotoxic potency compared to methyl jasmonate, first screening [1]: more potent than methyl jasmonate

CCCCCC1c2nc(NC(=O)Cc3cccs3)sc2CC1CC(=O)O (centres unmarked) [Compound A3]
IC20 (Molt-4 (leukemia) cells [2]): 10 µM
IC50 (Molt-4 (leukemia) cells [2]): 50 µM
Cytotoxic potency at 0.1 mM, first screening [1]: very potent
Cytotoxic potency, second screen [1]: most potent
Cytotoxic potency compared to methyl jasmonate, first screening [1]: more potent than methyl jasmonate
Cytotoxic potency compared to methyl jasmonate, third screen [1]: significantly more potent than methyl jasmonate
IC20 [3]: 70 µM
IC50 [3]: 300 µM
IC20 [4]: 30 µM
IC50 [4]: 250 µM
Selective cytotoxic effect: leukemic cells vs normal lymphocytes [4]: without exerting a substantial effect on normal lymphocytes

CCCCCC1c2nc(-c3ccccc3)sc2CC1CC(=O)N1CCC(O)CC1 (centres unmarked) [Compound A4]
IC20 (Molt-4 (leukemia) cells [2]): < 10 µM
IC50 (Molt-4 (leukemia) cells [2]): 45 µM
inhibition at 1 µM [1]: 4%
inhibition at 10 µM [1]: 10%
inhibition at 100 µM [1]: 96%
Cytotoxic potency at 0.1 mM, first screening [1]: very potent
Cytotoxic potency, second screen [1]: most potent
Cytotoxic potency compared to methyl jasmonate, first screening [1]: more potent than methyl jasmonate
Cytotoxic potency compared to methyl jasmonate, third screen [1]: significantly more potent than methyl jasmonate
IC20 [3]: 25 µM
IC20 [4]: < 10 µM
Selective cytotoxic effect: leukemic cells vs normal lymphocytes [4]: without exerting a substantial effect on normal lymphocytes

CCCCCC1c2nc(NS(=O)(=O)c3cccc(F)c3)sc2CC1CC(=O)OC (centres unmarked) [Compound A5]
Cytotoxic potency at 0.1 mM, first screening [1]: very potent
Cytotoxic potency compared to methyl jasmonate, first screening [1]: more potent than methyl jasmonate

CCCCCC1c2nc(Nc3ccccc3)sc2CC1CC(=O)NCCOC (centres unmarked) [Compound A6]
Cytotoxic potency at 0.1 mM, first screening [1]: very potent
Cytotoxic potency, second screen [1]: most potent
Cytotoxic potency compared to methyl jasmonate, first screening [1]: more potent than methyl jasmonate

CC/C=C\CC1C(=O)CCC1CCOC(=O)CC1CCC(=O)C1C/C=C\CC (centres unmarked) [Compound B3]
IC50 (Molt-4): 70 µM
IC50 (Fibroblasts): > 500 µM
IC50 [5]: 250 µM
IC50 (Molt 4 cell line): 500 µM
IC50 (Molt-4 cell line; Homo sapiens, MOLT-4, Molt-4): 60 µM
IC50 (Molt-4 cell line; Molt-4, listed as B3 (IV)): 50 µM
IC50 (Molt-4 cell line; Molt-4, listed as B3 (V)): 80 µM
IC50 (NCI H460): > 1000 µM
IC50 (PBL, healthy donors; Homo sapiens, PBL healthy donors, without PHA/TPA, 24 hours, n=12): 1000 µM
Selective cytotoxicity towards cancer cells (PBL, healthy donors; Molt-4, CLL vs PBL, FIG. 5): exhibits selective cytotoxicity towards cancer cells
IC50 (B16): 700 µM
IC50 (HTB38): > 1000 µM
IC50 (LNCaP): > 1000 µM

CC/C=C\CC1C(=O)CCC1CC(=O)OC (centres unmarked) [MJ, methyl jasmonate, reference compound]
IC20 (Molt-4 (leukemia) cells [2]): 30 to 50 µM
IC50 (Molt-4 (leukemia) cells [2]): 100 to 500 µM
Cytotoxicity to Molt-4 cells (previously reported data) (Molt-4 (leukemia) cells [6]): cytotoxic to Molt-4 cells
inhibition at 1 µM [1]: 6%
inhibition at 10 µM [1]: 5%
inhibition at 100 µM [1]: 17%
IC50 (Molt 4 cell line): 500 µM
IC50 (Molt-4 cell line; Homo sapiens, MOLT-4, Molt-4): 600 µM
IC20 [3]: > 500 µM
IC50 [3]: > 500 µM
Toxicity to normal lymphocytes (previously reported data) [7]: almost not toxic to normal lymphocytes
IC20 [4]: > 500 µM
IC50 [4]: > 500 µM
Prevention of development of lymphomas (lymphomas): effective in preventing development of lymphomas in mice
